Results as given in patent US11040981B2, “Pyrrolotriazine compounds and methods of inhibiting TAM kinases” (Syros Pharmaceuticals, Inc., priority 2017, dated 2021).
pIC50: −log10 of the molar value.

Assays:
[1] = target: T1, FLT3 (Homo sapiens, UniProt P36888); experiment: TR-FRET kinase activity assay, FLT3; format: biochemical; conditions: ATP at Km, 60 minutes
T1 sequence (P36888 27-993): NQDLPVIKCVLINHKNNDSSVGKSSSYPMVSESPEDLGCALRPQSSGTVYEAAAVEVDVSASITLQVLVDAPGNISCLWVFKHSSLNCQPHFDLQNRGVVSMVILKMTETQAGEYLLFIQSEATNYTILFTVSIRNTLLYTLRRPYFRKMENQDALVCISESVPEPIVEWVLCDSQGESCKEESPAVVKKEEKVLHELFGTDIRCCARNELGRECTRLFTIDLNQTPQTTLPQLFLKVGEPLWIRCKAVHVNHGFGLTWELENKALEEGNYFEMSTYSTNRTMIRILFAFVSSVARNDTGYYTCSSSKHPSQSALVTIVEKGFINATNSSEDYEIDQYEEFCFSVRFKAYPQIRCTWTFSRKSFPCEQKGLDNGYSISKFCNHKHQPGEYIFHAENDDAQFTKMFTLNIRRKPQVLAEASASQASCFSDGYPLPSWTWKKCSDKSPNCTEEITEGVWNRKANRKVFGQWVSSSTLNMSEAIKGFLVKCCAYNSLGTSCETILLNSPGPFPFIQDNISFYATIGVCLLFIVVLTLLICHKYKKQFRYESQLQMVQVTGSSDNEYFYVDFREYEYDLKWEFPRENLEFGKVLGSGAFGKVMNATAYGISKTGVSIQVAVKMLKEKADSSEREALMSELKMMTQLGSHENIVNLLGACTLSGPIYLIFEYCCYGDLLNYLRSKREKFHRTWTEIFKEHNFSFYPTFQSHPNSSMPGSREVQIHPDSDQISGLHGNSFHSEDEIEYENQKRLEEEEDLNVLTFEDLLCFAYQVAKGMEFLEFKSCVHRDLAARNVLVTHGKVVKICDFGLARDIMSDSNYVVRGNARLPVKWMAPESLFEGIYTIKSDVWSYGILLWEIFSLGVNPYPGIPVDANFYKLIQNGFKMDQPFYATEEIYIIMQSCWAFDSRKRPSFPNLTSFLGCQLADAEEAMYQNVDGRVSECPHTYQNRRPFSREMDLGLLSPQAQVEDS
How it was run: (§1)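 Inhibition is measured as loss of phospho-peptide formation: kinase, fluorescent tyrosine peptide and compound are combined, ATP is added at Km, and the reaction proceeds 60 min at RT in pH 7.5 HEPES buffer. An EDTA stop and Eu-labelled phospho-specific antibody allow TR-FRET detection for IC50 fitting.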

[2] = target: T2, MERTK (Homo sapiens, UniProt Q12866); experiment: TR-FRET kinase activity assay, MERTK; format: biochemical; conditions: for pIC50: TR-FRET activity assay, ATP at Km, 60 minutes, read-out: Mer IC50
T2 sequence (Q12866 21-999): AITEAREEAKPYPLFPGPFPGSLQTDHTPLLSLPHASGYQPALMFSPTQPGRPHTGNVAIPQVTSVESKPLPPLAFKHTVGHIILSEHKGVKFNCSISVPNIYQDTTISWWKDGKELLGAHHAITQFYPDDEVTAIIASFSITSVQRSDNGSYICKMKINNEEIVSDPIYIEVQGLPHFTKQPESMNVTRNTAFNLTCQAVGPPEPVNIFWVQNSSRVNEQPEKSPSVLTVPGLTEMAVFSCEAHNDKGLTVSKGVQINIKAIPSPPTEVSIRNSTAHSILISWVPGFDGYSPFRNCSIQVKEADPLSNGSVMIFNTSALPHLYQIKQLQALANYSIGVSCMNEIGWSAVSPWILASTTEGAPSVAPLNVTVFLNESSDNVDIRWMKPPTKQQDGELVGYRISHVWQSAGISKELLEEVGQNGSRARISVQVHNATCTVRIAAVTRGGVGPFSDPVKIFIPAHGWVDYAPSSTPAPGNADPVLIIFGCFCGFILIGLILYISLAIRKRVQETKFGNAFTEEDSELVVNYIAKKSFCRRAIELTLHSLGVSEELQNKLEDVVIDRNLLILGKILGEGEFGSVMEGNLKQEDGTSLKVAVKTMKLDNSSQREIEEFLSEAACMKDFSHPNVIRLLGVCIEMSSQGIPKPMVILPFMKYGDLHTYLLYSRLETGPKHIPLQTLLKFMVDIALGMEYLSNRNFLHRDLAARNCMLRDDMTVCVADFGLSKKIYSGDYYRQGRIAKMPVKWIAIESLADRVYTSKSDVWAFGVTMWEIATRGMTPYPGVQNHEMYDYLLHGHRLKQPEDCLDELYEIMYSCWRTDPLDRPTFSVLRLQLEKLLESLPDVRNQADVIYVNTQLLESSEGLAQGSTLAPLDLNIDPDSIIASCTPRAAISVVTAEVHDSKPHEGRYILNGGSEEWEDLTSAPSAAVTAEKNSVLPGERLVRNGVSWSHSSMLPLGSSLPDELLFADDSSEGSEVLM
How it was run: as §1

[3] = ratio calculated as FLT3 IC50/Mer IC50
[4] = ratio of Mer to FLT3: FLT3 IC50/Mer IC50

pIC50 [1] | pIC50 [2] | FLT3/Mer ratio (FLT3 IC50/Mer IC50) [2, 3] | FLT3/Mer ratio (FLT3 IC50/Mer IC50) [2, 4] | Compound
5.00 to 6.00 | ≥ 7.00 | +++ (“+++” represents a ratio of >100) | – | COCC(C)Nc1ncc2c(-c3cnn(C4COC4)c3)cc(C3CCNC(=O)C3)n2n1 (mixture of isomers) [Compound 592]
6.00 to 7.00 | ≥ 7.00 | +++ (“+++” represents a ratio of >100) | – | COC[C@H](C)Nc1ncc2c(-c3cnn(C4COC4)c3)cc(C3CCSCC3)n2n1 [Compound 522]
≥ 7.00 | ≥ 7.00 | +++ (“+++” represents a ratio of >100) | – | C[C@@H](CC(F)(F)F)Nc1ncc2c(-c3ccnc([S@](C)(=N)=O)c3)cc([C@H]3CC[C@H](O)CC3)n2n1 [Compound 580]
6.00 to 7.00 | ≥ 7.00 | – | +++ (“+++” represents a ratio of >100) | CCCCC[C@H](C)Nc1ncc2c([C@H]3CC[C@@H](C(=O)N4CCS(=O)(=O)CC4)CC3)cc([C@H]3CC[C@H](O)CC3)n2n1 [Compound 137]
6.00 to 7.00 | ≥ 7.00 | +++ (“+++” represents a ratio of >100) | – | COC[C@H](C)Nc1ncc2c(-c3ccnc(C4COC4)c3)cc([C@H]3CC[C@H](O)CC3)n2n1 [Compound 566]
6.00 to 7.00 | ≥ 7.00 | – | +++ (“+++” represents a ratio of >100) | CC[C@H](C)Nc1ncc2c(C3CCNCC3)cc([C@H]3CC[C@H](O)CC3)n2n1 [Compound 135, (trans)-4-(2-((S)-sec-butylamino)-5-(piperidin-4-yl)pyrrolo[2,1-f][1,2,4]triazin-7-yl)cyclohexanol]
6.00 to 7.00 | ≥ 7.00 | +++ (“+++” represents a ratio of >100) | – | CC(COc1ccccc1)Nc1ncc2c(-c3cnn(C4COC4)c3)cc([C@H]3CC[C@H](O)CC3)n2n1 (mixture of isomers) [Compound 528]
5.00 to 6.00 | ≥ 7.00 | – | +++ (“+++” represents a ratio of >100) | COC[C@H](C)Nc1ncc2c(-c3ccc(C(=O)O)cc3)cc([C@H]3CC[C@H](O)CC3)n2n1 [Compound 139]
5.00 to 6.00 | ≥ 7.00 | +++ (“+++” represents a ratio of >100) | – | COC[C@H](C)Nc1ncc2c(-c3ccc([S@](C)(=N)=O)nc3)cc([C@H]3CC[C@H](O)CC3)n2n1 [Compound 532]
6.00 to 7.00 | ≥ 7.00 | +++ (“+++” represents a ratio of >100) | – | COC[C@H](C)Nc1ncc2c(-c3ccnc(N4CCOCC4)c3)cc([C@H]3CC[C@@](C)(O)CC3)n2n1 [Compound 548]
5.00 to 6.00 | ≥ 7.00 | +++ (“+++” represents a ratio of >100) | – | COC[C@H](C)Nc1ncc2c(-c3ccnc(N4CCc5cnn(C)c5C4)c3)cc([C@H]3CC[C@H](O)CC3)n2n1 [Compound 518]
5.00 to 6.00 | ≥ 7.00 | +++ (“+++” represents a ratio of >100) | – | COCC(C)Nc1ncc2c(-c3ccc4[nH]ccc4c3)cc(C3CCC(O)CC3)n2n1 (stereo not drawn) [Compound 539]
5.00 to 6.00 | ≥ 7.00 | +++ (“+++” represents a ratio of >100) | – | C[C@@H](CC(F)(F)F)Nc1ncc2c(-c3cncc([S@](C)(=N)=O)c3)cc([C@H]3CC[C@H](O)CC3)n2n1 [Compound 582]
5.00 to 6.00 | ≥ 7.00 | +++ (“+++” represents a ratio of >100) | – | COC[C@H](C)Nc1ncc2c(-c3cnn(C(C)(C)C(=O)N4CCOCC4)c3)cc([C@@H]3CCc4cn[nH]c4C3)n2n1 [Compound 594]
≥ 7.00 | ≥ 7.00 | +++ (“+++” represents a ratio of >100) | – | C[C@@H](CC(F)(F)F)Nc1ncc2c(-c3ccc([S@](C)(=N)=O)nc3)cc([C@H]3CC[C@H](O)CC3)n2n1 [Compound 540]
< 5.00 | ≥ 7.00 | +++ (“+++” represents a ratio of >100) | – | COC[C@H](C)Nc1ncc2c(-c3cncc([S@](C)(=N)=O)c3)cc([C@H]3CC[C@@H](O)CC3)n2n1 [Compound 572]
5.00 to 6.00 | ≥ 7.00 | +++ (“+++” represents a ratio of >100) | – | COC[C@H](C)Nc1ncc2c(-c3ccc([S@@](C)(=N)=O)nc3)cc([C@H]3CC[C@H](O)CC3)n2n1 [Compound 533]
6.00 to 7.00 | ≥ 7.00 | +++ (“+++” represents a ratio of >100) | – | C[C@@H](COC(F)F)Nc1ncc2c(-c3cnn(C(C)(C)C(=O)N4CCN(C)CC4)c3)cc([C@H]3CC[C@H](O)CC3)n2n1 [Compound 593]
5.00 to 6.00 | ≥ 7.00 | +++ (“+++” represents a ratio of >100) | – | CCS(=O)(=O)N1CC(CC#N)(n2cc(-c3cc([C@H]4CC[C@H](O)CC4)n4nc(N[C@@H](C)COC)ncc34)cn2)C1 [Compound 567]
6.00 to 7.00 | ≥ 7.00 | +++ (“+++” represents a ratio of >100) | – | COC[C@H](C)Nc1ncc2c(-c3ccnc(N4CCN(CC5COC5)CC4)c3)cc([C@H]3CC[C@H](O)CC3)n2n1 [Compound 512]
6.00 to 7.00 | ≥ 7.00 | +++ (“+++” represents a ratio of >100) | – | C[C@@H](CC(F)(F)F)Nc1ncc2c(-c3cncc([S@@](C)(=N)=O)c3)cc([C@H]3CC[C@H](O)CC3)n2n1 [Compound 583]
6.00 to 7.00 | ≥ 7.00 | +++ (“+++” represents a ratio of >100) | – | COC[C@H](C)Nc1ncc2c(-c3cnn(C4COC4)c3)cc(C3CCC(F)(F)CC3)n2n1 [Compound 515]
5.00 to 6.00 | ≥ 7.00 | +++ (“+++” represents a ratio of >100) | – | COC[C@H](C)Nc1ncc2c([C@H]3CC[C@@H](C(=O)N4CC5(COC5)C4)CC3)cc([C@H]3CC[C@H](O)CC3)n2n1 [Compound 579]

Compound | pIC50 [1] | pIC50 [2] | FLT3/Mer ratio (FLT3 IC50/Mer IC50) [2, 3] | FLT3/Mer ratio (FLT3 IC50/Mer IC50) [2, 4]
COC[C@H](C)Nc1ncc2c(-c3cnn(C4COC4)c3)cc([C@@H]3CC[C@H](O)C(C)(C)C3)n2n1 [Compound 571] | 6.00 to 7.00 | ≥ 7.00 | ++ (“++” represents a ratio of between 10 and 100) | –
COC[C@H](C)Nc1ncc2c(-c3cnn(C4COC4)c3)cc([C@@H]3CC[C@@H](O)C(C)(C)C3)n2n1 [Compound 570] | 6.00 to 7.00 | ≥ 7.00 | ++ (“++” represents a ratio of between 10 and 100) | –
CC(Cc1ccc(F)cc1)Nc1ncc2c(-c3cnn(C4COC4)c3)cc(C3CCC(O)CC3)n2n1 (racemic) [Compound 535] | ≥ 7.00 | ≥ 7.00 | ++ (“++” represents a ratio of between 10 and 100) | –
